This is an account of results in patent US5620676A, “Biologically active ATP analogs” (priority 1995, dated 1997).

Assay [1] has as its target T1, P2X receptor (vas deferens) (Cavia porcellus, UniProt A0A286XVA9).
T1 sequence (A0A286XVA9 1-399): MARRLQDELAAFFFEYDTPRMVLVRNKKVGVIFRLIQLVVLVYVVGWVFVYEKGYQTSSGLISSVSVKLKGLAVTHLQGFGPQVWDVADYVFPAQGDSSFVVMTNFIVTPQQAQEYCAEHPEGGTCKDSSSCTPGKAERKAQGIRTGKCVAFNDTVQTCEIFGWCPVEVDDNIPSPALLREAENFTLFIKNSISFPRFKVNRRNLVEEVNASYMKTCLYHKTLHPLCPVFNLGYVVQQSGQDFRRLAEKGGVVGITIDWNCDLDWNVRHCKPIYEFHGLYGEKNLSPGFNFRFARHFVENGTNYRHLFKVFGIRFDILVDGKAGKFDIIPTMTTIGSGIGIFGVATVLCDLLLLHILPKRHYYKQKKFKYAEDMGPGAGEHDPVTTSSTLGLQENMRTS
Kind of assay: Contraction of guinea pig isolated vas deferens.

The target of assay [2] is T2, P2X receptor (urinary bladder) (Cavia porcellus, UniProt A0A286XVA9).
T2 construct: guinea pig isolated urinary bladder detrussor muscle; from tissue; host or cells: guinea pig isolated urinary bladder detrusor muscle
Kind of assay: Contraction of guinea pig isolated urinary bladder detrussor muscle. The following applies: guinea pig urinary bladder.

The target of assay [3] is T3, P2Y receptor (taenia coli) (Cavia porcellus, UniProt P59902).
T3 construct: Relaxant responses mediated via P2Y receptors were examined in guinea pig taenia coli; from tissue; host or cells: guinea pig taenia coli (carbachol-contracted)
T3 sequence (P59902 whole entry): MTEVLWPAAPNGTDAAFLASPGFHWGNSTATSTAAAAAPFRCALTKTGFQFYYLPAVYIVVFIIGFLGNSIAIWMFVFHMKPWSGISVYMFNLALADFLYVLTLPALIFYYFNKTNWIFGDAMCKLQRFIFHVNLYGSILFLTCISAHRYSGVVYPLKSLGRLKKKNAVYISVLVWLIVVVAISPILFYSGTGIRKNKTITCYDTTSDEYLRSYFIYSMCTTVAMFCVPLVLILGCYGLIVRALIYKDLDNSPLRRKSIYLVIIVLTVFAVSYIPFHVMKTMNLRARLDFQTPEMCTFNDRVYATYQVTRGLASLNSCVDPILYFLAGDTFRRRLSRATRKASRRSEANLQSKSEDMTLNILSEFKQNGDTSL
Kind of assay: Relaxation of carbachol-contracted guinea pig taenia coli. An excerpt: Muscular relaxation/contraction: Relaxant responses mediated via P2Y receptors were examined in guinea pig taenia coli, rabbit aorta, and rabbit mesenteric artery, as described by Hoyle et al. (Br. J. Pharmacol., 107, 367-374 (1992a)), Burnstock et al., (Br. J. Pharmacol., 90, 383-391 (1987a)), and Rubino et al., (Eur. J. Pharmacol., 212, 237-240 (1992)). Contractile responses mediated via P2X receptors were examined in the guinea pig urinary bladder and vas deferens, and rabbit saphenous artery, also using standard methods (see Hoyle et al., supra., 1992; Hoyle et al., Br. J. Pharmacol., 99, 617-621 (1990); and Burnstock et al., Br. J. Pharmacol., 90, 111-120 (1987b)).
Muscular relaxation assays were performed as recited in Example 3. […] All curves are the mean of two determinations except for 5'-ATP (n=38), 2-hexylthio-ATP (n=4), 2-(5-hexenyl)thio-ATP (n=3), and 2-(2-4-nitrophenylethyl)thio-AMP (n=5). […] The pD2 value for 2-methylthio-ATP is 8.0±0.15, as reported by Hoyle et al., in Receptor Data for Biological Experiments, (H. N. Doods and J. C. A. Van Meel, eds., 1992b) at pp. 54-61.
(§1) Phospholipase C activity and muscle relaxation/contraction effects were assessed using the methods recited in Example 3. In FIGS. 10-12, which present the result of assays of phospholipase C activity in turkey erythrocyte membranes, the x-axis is marked in units of the log of the molar concentration of the putative P2Y receptor agonist tested and the y-axis is marked in units of the percentage of maximum production of [^3 H]-inositol phosphate generated. In FIG. 13, the x-axis is marked in units of the negative log of the molar concentration of applied putative P2Y receptor agonists and the y-axis is marked in units of the percentage relaxation of the 50 nM carbachol-induced contraction of guinea pig taenia coli. In FIG. 14, the x-axis is also marked in units of the negative log of the molar concentration of applied putative P2Y receptor agonists and the y-axis is marked in units of the percentage relaxation of the 1 μM noradrenalin-induced contraction of rabbit aorta endothelium. In FIGS. 15-16, the x-axis is marked in units of the negative log of the molar concentration of applied putative p^2X receptor agonists and the y-axis is marked in units of the percentage contraction relative to a standard dose of KCl (i.e., 60 mM), as assessed in guinea pig isolated urinary bladder detrussor muscle (FIG. 15) and guinea pig isolated vas deferens (FIG. 16).

The target of assay [4] is T4, P2Y receptor (turkey erythrocyte membranes) (Meleagris gallopavo, UniProt P49652).
T4 construct: from tissue; host or cells: washed turkey erythrocytes, ghosts prepared by hypotonic lysis
T4 sequence (P49652 whole entry): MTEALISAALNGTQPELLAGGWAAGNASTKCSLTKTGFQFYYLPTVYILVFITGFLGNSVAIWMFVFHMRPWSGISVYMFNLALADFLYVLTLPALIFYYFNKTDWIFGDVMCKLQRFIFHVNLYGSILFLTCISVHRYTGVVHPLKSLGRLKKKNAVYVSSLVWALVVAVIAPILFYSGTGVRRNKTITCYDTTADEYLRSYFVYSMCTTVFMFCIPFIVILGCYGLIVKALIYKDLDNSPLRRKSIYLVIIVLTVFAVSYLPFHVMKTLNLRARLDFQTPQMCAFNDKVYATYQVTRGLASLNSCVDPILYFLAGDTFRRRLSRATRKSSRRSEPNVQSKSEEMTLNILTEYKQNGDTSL
Kind of assay: Stimulation of phospholipase C (inositol phosphate formation) in turkey erythrocyte membranes. Format: biochemical. How it is done:
Phospholipase C activity: Stimulation of inositol phosphate formation by compounds of the present invention was measured in turkey erythrocyte membranes as described by Harden et al., supra and Boyer et al., supra. The K0.5 values were averaged from 3-8 independently determined dose-response curves for each compound. Briefly, one ml of washed turkey erythrocytes was incubated in inositol-free medium (DMEM; Gibco) with 0.5-1 mCi of 2-[^3 H]myoinositol (20 Ci/mmol; American Radiolabeled Chemicals Inc., St. Louis, Mo.)for 18-24 h in a humidified atmosphere of 95% air 5% CO2 at 37° C. Erythrocyte ghosts were prepared by rapid lysis in hypotonic buffer (5 mM sodium phosphate, pH 7.4, 5 mM MgCl2, 1 mM EGTA) as described by Boyer et al., supra. Phospholipase C activity was measured in 25 μl of [^3 H]inositol-labeled ghosts (≈175 μg of protein, 200-500,000 cpm/assay) in a medium containing 424 μM CaC12, 0.91 mM MgSO4, 2 mM EGTA, 115 mM KCl, 5 mM KH2 PO4, and 10 mM Hepes, pH 7.0. Assay (100 μl or 200 μl final volume) contained 1 μM GTPγS and the indicated concentrations of nucleotide analogs. Ghosts were incubated at 30° C. for 5 min, and total [^3 H]inositol phosphates were quantitated after purification by anion exchange chromatography according to Harden et al. (supra) and Boyer et al. (supra).
as §1

Assay [5] addresses P2Y receptor (mesenteric artery). In words: Relaxation of rabbit mesenteric artery. The following applies: log molar units.
The test system of assay [6] is P2Y receptor (aorta endothelium). Kind of assay: Relaxation of noradrenalin-contracted rabbit aorta. The note with it: rabbit aorta; log molar units.
Where [7] appears, read: guinea pig taenia coli, log molar units, read-out: relaxation pD2, taenia coli (converted).
[8] abbreviates: turkey erythrocyte membranes, mean ± S.E.M. for at least 2 determinations, read-out: phosphatidyl inositol metabolism (K0.5, nM) erythrocyte.
The mark [9] stands for this setting: turkey erythrocyte membranes, read-out: K0.5.

Entries after “also recorded” stand apart in the source; their conditions may differ. Where two headings read alike, the source gives them in different places.

As to `Nc1ncnc2c1ncn2[C@H]1CC[C@@H](COP(=O)(O)OP(=O)(O)OP(=O)(O)O)O1` [2',3'-Dideoxy-ATP, 2',3'-dideoxy-ATP, reference compound], the “activity/potency in words, vas deferens” value in assay [1] is on record as “≈ATP”. In assay [2], the “activity/potency in words, bladder” value is on record as “>ATP”. Besides, the “activity/potency in words, taenia coli” value in assay [3] (guinea pig taenia coli) is given as “as potent as ATP at taenia coli P2Y receptors”. For the same compound, the EC50 was 10 µM in assay [3] (setting [7]) and 70800 nM in assay [4] (setting [8]). For the same compound, the “activity/potency in words, turkey erythrocyte” value in assay [4] (turkey erythrocyte membranes) is recorded as “weakly active at turkey erythrocyte P2Y receptors”.

Consider `Nc1nc(SCCc2ccc([N+](=O)[O-])cc2)nc2c1ncn2[C@@H]1O[C@H](COP(=O)(O)O)[C@@H](O)[C@H]1O` [2-(2-p-Nitrophenylethyl)-thio-AMP, 2-[2-(p-nitrophen)ethylthio]adenosine 5'-monophosphate], for which, in assay [5], the “relaxation pD2, mes. artery” value turned out to be 5.0. Besides, the “activity/potency in words, taenia coli” value in assay [3] (guinea pig taenia coli) is given as “slightly less potent than ATP”. In assay [3] (guinea pig taenia coli, log molar units), the “relaxation pD2, taenia coli” value is 6.5. In assay [6], the “relaxation pD2, aorta” value is 6.1. For the same compound, the EC50 in assay [4] (setting [8]) is 3000 ± 1200 nM.

As for `Nc1nc(SC2CCCCC2)nc2c1ncn2[C@@H]1O[C@H](COP(=O)(O)OP(=O)(O)OP(=O)(O)O)[C@@H](O)[C@H]1O` [2-Cyclohexylthio-ATP, 2-cyclohexylthio-ATP], the “relaxation pD2, mes. artery” value in assay [5] worked out at 5.9. Besides, the EC50 was 0.0158 µM in assay [3], 24 ± 4 nM in assay [4] (setting [8]) and 5 to 30 nM in assay [4] (setting [9]). Moreover, in assay [6], the “relaxation pD2, aorta” value was 6.3. Besides, the “activity/potency in words, turkey erythrocyte” value in assay [4] (turkey erythrocyte membranes) is on record as “at least two orders of magnitude more potent”.

Consider `Nc1nc(SCCc2ccccc2)nc2c1ncn2[C@@H]1O[C@H](COP(=O)(O)OP(=O)(O)OP(=O)(O)O)[C@@H](O)[C@H]1O` [2-Phenylethylthio-ATP, 2-phenylethylthio-ATP], for which the “relaxation pD2, mes. artery” value in assay [5] was 6.2. The EC50 in assay [3] was 0.0794 µM; in assay [4] (setting [8]) it was 30 ± 17 nM; in assay [4] (setting [9]) it was 5 to 30 nM. For the same compound, the “relaxation pD2, aorta” value in assay [6] amounted to 6.5. Besides, the “activity/potency in words, turkey erythrocyte” value in assay [4] (turkey erythrocyte membranes) is “at least two orders of magnitude more potent”.

Take `Nc1ncnc2c1ncn2[C@@H]1O[C@H](COP(=O)(O)OP(O)(O)=S)[C@@H](O)[C@H]1O` [ADP-β-S, reference compound]: in assay [5], the “relaxation pD2, mes. artery” value was 5.8. Also, the “activity/potency in words, taenia coli” value in assay [3] (guinea pig taenia coli) is listed as “not in the taenia coli; also recorded: no greater affinity for the P2Y receptor in the guinea-pig taenia coli than ATP or ADP”. Also, the “relaxation pD2, aorta” value in assay [6] is on record as 5.8. Also, the “times more potent than ADP, turkey erythrocyte” value in assay [4] (relative to ADP) is roughly 400 times. Also, in assay [4] (relative to ATP), the “times more potent than ATP, turkey erythrocyte” value is listed as “approximately 140 times”. Moreover, in assay [4] (turkey erythrocyte membranes), the “activity/potency in words, turkey erythrocyte” value is on record as “enhanced potency relative to the parent compound; also recorded: a very high affinity for the turkey erythrocyte P2Y receptor”. Further, the EC50 in assay [4] (setting [8]) amounted to 96 ± 27 nM.

With `Nc1ncnc2c1ncn2[C@@H]1O[C@H](COP(=O)(O)O)[C@@H](O)[C@H]1O` [AMP, adenosine 5'-monophosphate, reference compound], the “activity/potency in words, vas deferens” value in assay [1] is given as “without effect”. Moreover, the “relaxation pD2, mes. artery” value in assay [5] is 5.0. In addition, the “activity/potency in words, bladder” value in assay [2] is “inactive”. Further, in assay [3] (guinea pig taenia coli), the “activity/potency in words, taenia coli” value is “much less potent”. The “relaxation pD2, aorta” value in assay [6] is 4.8. In assay [4] (5 min, at 10^-4 M, read-out: % stimulation at concentration indicated), the activation at 100 µM was 4 ± 2%. In assay [4] (turkey erythrocyte membranes), the “activity/potency in words, turkey erythrocyte” value is “inactive”.

Consider `Nc1ncnc2c1ncn2[C@@H]1O[C@H](COP(=O)(O)OP(=O)(O)OP(O)(O)=S)[C@@H](O)[C@H]1O` [ATP-γ-S, reference compound], for which the “relaxation pD2, mes. artery” value in assay [5] amounted to 5.8. In addition, the “activity/potency in words, taenia coli” value in assay [3] (guinea pig taenia coli) is listed as “not in the taenia coli”. Besides, in assay [6], the “relaxation pD2, aorta” value is reported as 5.7. Further, the “activity/potency in words, turkey erythrocyte” value in assay [4] (turkey erythrocyte membranes) was “enhanced potency relative to the parent compound”. Further, the EC50 in assay [4] (setting [8]) came to 1260 ± 380 nM.

Turning to `Nc1ncnc2c1ncn2[C@@H]1O[C@H](CO)[C@@H](O)[C@H]1O` [Adenosine, reference compound], the “relaxation pD2, mes. artery” value in assay [5] came to 6.0. Further, the EC50 is 126 µM in assay [3] and greater than 10000 nM in assay [4] (at 10^-5 M, read-out: phosphatidyl inositol metabolism (K0.5) erythrocyte, class symbol). In addition, the “relaxation pD2, aorta” value in assay [6] is on record as 5.7.

In the case of `Nc1ncnc2c1ncn2[C@@H]1O[C@H](COP(=O)(O)OP(=O)(O)NP(=O)(O)O)[C@@H](O)[C@H]1O` [AppNHp, reference compound], the “activity/potency in words, vas deferens” value in assay [1] is “an effect similar to methylene replacement”. Also, the “relaxation pD2, mes. artery” value in assay [5] is on record as 6.6. For the same compound, the “activity/potency in words, taenia coli” value in assay [3] (guinea pig taenia coli) is listed as “an effect similar to methylene replacement”. In assay [6], the “relaxation pD2, aorta” value amounted to 5.5. For the same compound, the “activity/potency in words, turkey erythrocyte” value in assay [4] (turkey erythrocyte membranes) is recorded as “equipotent with ATP in the erythrocytes”. In assay [4] (setting [8]), the EC50 was 4450 ± 1150 nM.

Regarding `O=c1ccn([C@@H]2O[C@H](COP(=O)(O)OP(=O)(O)OP(=O)(O)O)[C@@H](O)[C@H]2O)c(=O)[nH]1` [UTP, reference compound], the “activity/potency in words, vas deferens” value in assay [1] is listed as “without effect in the vas deferens”. Besides, the “relaxation pD2, mes. artery” value in assay [5] is 6.7. For the same compound, in assay [2], the “activity/potency in words, bladder” value is “as potent as or more potent than ATP in the bladder”. Also, the EC50 in assay [3] (setting [7]) is 316 µM; in assay [4] (setting [8]), 143000 nM. Moreover, in assay [6], the “relaxation pD2, aorta” value came to 4.8.
